According to US6245817A, “NPY5 receptor antagonists and methods for using same” (Bayer Corporation, priority 1999, dated 2001):

What was measured:
Human NPY1 Receptor = biological target: T1, Human NPY1 Receptor (Homo sapiens, UniProt P25929); test: Human NPY1 Receptor Binding Assay; conditions: SK-N-MC cells, [125I]PYY; read-out: hNPY1 IC50
T1 sequence (P25929 1-384): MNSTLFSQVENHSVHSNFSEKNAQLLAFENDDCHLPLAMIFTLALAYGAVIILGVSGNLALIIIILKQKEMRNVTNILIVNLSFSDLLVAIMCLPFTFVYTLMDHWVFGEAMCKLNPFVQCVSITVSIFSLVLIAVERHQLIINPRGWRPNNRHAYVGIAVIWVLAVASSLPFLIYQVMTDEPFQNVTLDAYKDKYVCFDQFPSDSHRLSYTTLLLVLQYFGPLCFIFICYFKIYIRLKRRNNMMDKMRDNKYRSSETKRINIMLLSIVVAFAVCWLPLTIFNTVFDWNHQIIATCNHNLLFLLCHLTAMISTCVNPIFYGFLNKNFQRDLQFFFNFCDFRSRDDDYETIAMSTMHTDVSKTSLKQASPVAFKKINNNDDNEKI

Human NPY2 receptor = biological target: T2, Human NPY2 receptor (Homo sapiens, UniProt P49146); test: Human NPY2 Receptor Binding Assay; conditions: [125I]PYY; read-out: hPPY2 IC50
T2 sequence (P49146 1-381): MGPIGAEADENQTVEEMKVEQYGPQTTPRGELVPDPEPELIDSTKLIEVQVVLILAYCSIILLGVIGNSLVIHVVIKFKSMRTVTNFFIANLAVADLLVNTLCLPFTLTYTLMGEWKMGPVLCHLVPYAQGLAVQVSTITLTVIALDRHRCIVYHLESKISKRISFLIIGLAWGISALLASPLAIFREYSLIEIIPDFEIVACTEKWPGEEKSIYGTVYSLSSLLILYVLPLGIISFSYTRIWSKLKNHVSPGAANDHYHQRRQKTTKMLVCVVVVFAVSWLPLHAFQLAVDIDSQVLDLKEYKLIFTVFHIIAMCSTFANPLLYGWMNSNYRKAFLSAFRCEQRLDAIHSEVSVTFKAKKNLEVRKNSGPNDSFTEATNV
Experimental: Binding assays were performed on GF/C Millipore 96-well plates pretreated with 0.02% polyethylenimine. The binding buffer for rat Y2 binding is Krebs-Ringer bicarbonate (pH 7.4) containing 0.01% BSA and 0.005% bacitracin. Samples consist of membrane protein, 25 pM [125I]PYY and drug dilution. Nonspecific binding is defined by 1 μpM NPY.
After a 2 hour incubation at room temperature with constant mixing, the samples are aspirated on a vacuum manifold, and rinsed with ice-cold binding buffer. The amount of radioactivity in each well is quantitated with either gamma counting or liquid scintillation.

Human NPY4/PP1 receptor = Human NPY4/PP1 receptor (Homo sapiens, UniProt P50391); test: Human NPY4/PP1 Receptor Binding Assay; conditions: [125I]human PP; read-out: hNPY4 IC50
Human NPY5 Receptor = biological target: T3, Human NPY5 Receptor (Homo sapiens, UniProt Q15761); test: Human NPY5 Receptor Binding Assay; conditions: [125I]PYY; read-out: hNPY5 IC50
T3 sequence (Q15761 1-445): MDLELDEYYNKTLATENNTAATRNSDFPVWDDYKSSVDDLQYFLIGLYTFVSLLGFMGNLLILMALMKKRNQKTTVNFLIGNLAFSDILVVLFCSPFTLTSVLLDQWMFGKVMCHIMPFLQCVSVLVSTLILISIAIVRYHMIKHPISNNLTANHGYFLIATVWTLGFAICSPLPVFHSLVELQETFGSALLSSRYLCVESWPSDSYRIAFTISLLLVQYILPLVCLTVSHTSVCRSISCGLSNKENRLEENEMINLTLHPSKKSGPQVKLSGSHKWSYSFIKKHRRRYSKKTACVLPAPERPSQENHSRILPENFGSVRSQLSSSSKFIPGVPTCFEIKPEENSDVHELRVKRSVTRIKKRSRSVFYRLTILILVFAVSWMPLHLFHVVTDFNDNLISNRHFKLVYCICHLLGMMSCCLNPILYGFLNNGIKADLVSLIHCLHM

Rat NPY5 Receptor = biological target: T4, Rat NPY5 Receptor (Rattus norvegicus, UniProt Q63634); test: Rat NPY5 Receptor Binding Assay; conditions: for inhibition at 10 µM: values marked *, read-out: rNPY5 percent inhibition at 10 μM; for IC50: [125I]PYY, read-out: rNPY5 IC50
T4 sequence (Q63634 1-445): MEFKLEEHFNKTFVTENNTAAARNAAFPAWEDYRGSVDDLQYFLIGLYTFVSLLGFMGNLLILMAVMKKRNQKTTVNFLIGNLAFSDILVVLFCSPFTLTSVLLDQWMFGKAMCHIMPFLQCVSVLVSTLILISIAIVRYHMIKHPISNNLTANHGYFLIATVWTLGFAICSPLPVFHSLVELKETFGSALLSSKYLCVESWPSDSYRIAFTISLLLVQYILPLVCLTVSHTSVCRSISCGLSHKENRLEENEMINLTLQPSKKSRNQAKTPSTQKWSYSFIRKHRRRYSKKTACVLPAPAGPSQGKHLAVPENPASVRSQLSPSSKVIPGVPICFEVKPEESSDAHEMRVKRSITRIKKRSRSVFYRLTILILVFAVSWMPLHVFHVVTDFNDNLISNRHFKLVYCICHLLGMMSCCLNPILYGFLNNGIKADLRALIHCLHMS

Chain of Human NPY4/PP1 receptor (P50391 whole entry): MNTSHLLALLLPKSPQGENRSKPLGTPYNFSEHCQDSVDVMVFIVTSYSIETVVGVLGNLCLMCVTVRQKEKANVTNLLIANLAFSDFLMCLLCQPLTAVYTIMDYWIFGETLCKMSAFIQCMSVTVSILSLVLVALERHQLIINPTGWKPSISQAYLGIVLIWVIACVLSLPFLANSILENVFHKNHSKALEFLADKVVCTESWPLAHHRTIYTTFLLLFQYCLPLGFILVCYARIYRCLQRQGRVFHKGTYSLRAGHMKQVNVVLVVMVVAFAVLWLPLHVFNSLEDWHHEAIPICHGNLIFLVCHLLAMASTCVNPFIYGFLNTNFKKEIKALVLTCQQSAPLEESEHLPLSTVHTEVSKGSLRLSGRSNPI

Structure (SMILES)	IC50 (Human NPY1 Receptor) [µM]	IC50 (Human NPY2 receptor) [µM]	IC50 (Human NPY4/PP1 receptor) [µM]	IC50 (Human NPY5 Receptor) [µM]	inhibition at 10 µM (Rat NPY5 Receptor) [%]	IC50 (Rat NPY5 Receptor) [µM]
Cc1nc(-c2nnc(SCC(=O)Nc3ccc(Cl)cc3)n2C)cs1 [Compound 138, N-(4-Chloro-phenyl)-2-(4-methyl-5-(2-methyl-thiazolo-yl)-4H-[1,2,4]triazol-3-ylsulfanyl]-acetamide, reference compound]	> 5	> 5	> 5	> 10	52	–
CCOc1ccc(NC(=O)CSc2nccn2C)cc1 [Compound 156, N-(4-Ethoxy-phenyl)-2-(1-methyl-1H-imidazol-2-ylsulfanyl)-acetamide, reference compound]	> 5	> 5	> 5	> 10	–	> 10
Cn1nnnc1SCC(=O)Nc1ccc(OC(F)(F)F)cc1 [Compound 144, 2-(1-Methyl-1H-tetrazol-5-ylsulfanyl)-N-(4-trifluoromethoxy-phenyl)-acetamide, reference compound]	> 5	> 5	> 5	1.2	–	1.4
Cn1ccnc1SCC(=O)Nc1ccc(-c2ccccc2)cc1 [Compound 1, N-Biphenyl-4yl-2-(1-methyl-1H-imidazol-2-ylsulfanyl)-acetamide]	> 5	> 10	> 5	0.64	95	–
O=C(CSc1n[nH]c(=O)n1-c1cccc(F)c1)Nc1ccc(Cl)cc1 [Compound 147, reference compound]	> 5	> 5	> 5	> 10	–	> 10
CSc1ncc(-c2nnc(SCC(=O)Nc3ccc(Cl)cc3)n2C)n1C [Compound 142, N-(4-Chloro-phenyl)-2-(4-methyl-5-(3-methyl-2-methylsulfanyl-3H-imidazol-4-yl)-4H-[1,2,4]triazol-3-ylsulfanyl]-acetamide, reference compound]	> 5	> 5	> 5	> 10	–	> 10
Cn1c(-c2ccc(Cl)cc2)cnc1SCC(=O)Nc1ccc(Cl)cc1 [Compound 154, N-(4-Chloro-phenyl)-2-[5-(4-chloro-phenyl)-1-methyl-1H-imidazol-2-ylsulfanyl]-acetamide, reference compound]	> 5	> 5	> 5	> 10	–	10
Cc1ccccc1NC(=O)CCC(Oc1ccccc1)C(=O)Nc1ccccc1C (stereo not drawn) [Compound 6, 2-Phenoxy-pentanedioic acid bis-o-tolylamide]	> 5	> 5	> 5	0.16	–	0.18
CC(C)c1ccc(NC(=O)CSc2n[nH]c(=O)n2-c2cccc(F)c2)cc1 [Compound 141, reference compound]	> 5	> 5	> 5	3	–	3
CCn1c(SCC(=O)Nc2ccc(Cl)cc2)nc2ccccc21 [Compound 140, N-(4-Chloro-phenyl)-2-(1-ethyl-1H-berzoimidazol-2-ylsulfanyl)-acetamide, reference compound]	> 5	> 5	> 5	> 10	61	–
Cc1ccc(SCC(=O)Nc2cccc(C#N)c2)cc1 [Compound 151, N-(3-Cyano-phenyl)-2-p-tolylsulfanyl-acetamide, reference compound]	> 5	> 5	> 5	0.24	–	0.28
CCC(C)c1ccc(NC(=O)CSc2nccn2C)cc1 (stereo not drawn) [Compound 148, N-(4-sec-Butyl-phenyl)-2-(1-methyl-1H-imidazo1-2-ylsulfanyl)-acetamide, reference compound]	> 5	> 5	> 5	4	–	2.4
Cn1ccnc1SCC(=O)Nc1ccc(I)cc1 [Compound 145, N-(4-Iodo-phenyl)-2-(1-methyl-1H-imidazol-2-ylsulfanyl)-acetamide, reference compound]	> 5	> 5	> 5	> 10	–	> 10
O=C(CCC(Sc1ccccc1)C(=O)Nc1ccccc1)Nc1ccccc1 (stereo not drawn) [Compound 7, 2-Phenylsulfanyl-pentanedioic acid bis-phenylamide]	> 5	> 5	> 5	1.6	–	0.44
Cc1cc(-c2nnc(SCC(=O)Nc3ccc(C(F)(F)F)cc3)n2C)no1 [Compound 2, 2-[4-Methyl-5-(5-methyl-isoxazol-3-yl)-4H-[1,2,4]triazol-3-ylsultanyl]-N-(4-trifluoro-methyl-phenyl)-acetamide]	> 5	> 5	> 5	> 10	–	> 10
Cc1cc(C)n2nc(SCC(=O)Nc3ccc(Cl)cc3)nc2n1 [Compound 137, reference compound]	> 5	> 5	> 5	> 10	–	> 10
Cn1c(CN2C(=O)CSc3ccc(C(F)(F)F)cc32)nnc1SCC(=O)Nc1ccccc1 [Compound 152, 2-[4-Methyl-5-(3-oxo-6-trifluornmethyl-2,3-dihydro-benzo[1,4]thiazin-4-ylmethyl)-4H-[1,2,4]triazol-3-ylsulfanyl]-N-phenyl-acetamide, reference compound]	> 5	> 5	> 5	> 10	–	> 10
CC(C)c1ccc(NC(=O)CSc2nccn2C)cc1 [Compound 155, N-(4-Isopropyl-phenyl)-2-(1-methyl-1H-imidazol-2-ylsulfanyl)-acetamide, reference compound]	> 5	> 5	> 5	> 10	–	> 10
CN1CCN=C1SCC(=O)Nc1ccc(F)cc1 [Compound 146, N-(4-Fluoro-phenyl)-2-(1-methyl-4,5-dihydro-1H-imidazol-2-ylsulfanyl)-acetamide, reference compound]	> 5	> 5	> 5	> 10	–	> 10
O=C(CSC1=NCCN1)Nc1ccc(Cl)cc1 [Compound 187, N-(4-Chloro-phenyl)-2-(4,5-dihydro-1H-imidazol-2-ylsulfanyl)-acetamide, reference compound]	> 5	> 5	> 5	> 10	–	> 10
O=C(CSc1ccccn1)Nc1ccc(C2CCCCC2)cc1 [Compound 182, N-(4-Cyclohexyl-phenyl)-2-(pyridin-2-ylsulfanyl)-acetamide, reference compound]	> 5	> 5	> 5	0.87	–	0.76
